The test system of data set [1] is Human PHFs. Kind of data set: Scatchard saturation test with ^3H-AST, PHFs. The format is binding. An excerpt: (§1) Interactions of quinolines with tau and in vitro displacement tests with H^3-AST. In previous laboratory tests by the inventor and also from other authors (Okamura N., Suemoto T., Furumoto S., Suzuki M., Shimadzu H., Akatsu H., Yamamoto T., Fujiwara H., Nemoto M., Maruyama M., Arai H., Yanai K., Sawada T., Kudo Y. (2005), Quinoline and becimidazole derivatives: candidate probes for in vivo imaging of tau pathology in Alzheimer's disease, J. Neurosci. 25: 10857-10862; Rojo L., Avila M., Chandia M., and Maccioni R. B. (2007), ^18F Lansoprazole as PET radiotracer, Chemical and biological studies towards the development of a New PET Radiotracer, International Conference on Clinical PET and Molecular Nuclear Medicine. 10-14 November, Bangkok) the Kd and binding maximums specific to some benzimidazols of clinical use were established, among them [O-methyl-3H]-astemizol (FIG. 2) through the interaction established with the tau protein. With this background Scatchard and displacement tests are performed with the quinolines mentioned before.
(§2) For the Scatchard test a fixed tau protein concentration (230 nM) and variable concentrations of ^3H-AST between 10 and 120 nM was used, leading to a final volume of 20 μL with 8% ethanol (EtOH 8%). The tau protein underwent treatment previous to this test, incubating the same at 37° C. under gentle agitation for 7 days. Subsequently the tau protein and ^3H-AST were incubated for 4 h at 25° C. under gentle agitation. Then this solution was filtered under vacuum for 10 minutes and the filtering papers were dried at room temperature, and transferred to a vial with 1.0 mL of scintillating liquid. It is then left in the dark and finally the counts per minute (cpm) are measured in a scintillating counting equipment.

Data set [2] has as its target Human Tau (441a.a.) (Homo sapiens, UniProt P10636). Kind of data set: Scatchard saturation test with ^3H-AST, tau filaments. The format is binding. The settings on record: for Affinity to tau filaments (in words): saturation studies, FIG. 12.
From the text: as §1, §2

Data set [3] is described as follows: Octanol/water partition coefficient (Log P). The format is physicochemical. Particulars: for logP: n-octanol / PBS 0.1× buffer, read-out: Log P (experimental); for Liposolubility expressed as Log P (in words): as candidates to cross the BHE. On the procedure: Pharm. Hung. 62 (1-2): 55-64, wherein 2 phases are used, an aqueous phase comprising a buffer solution PBS 0.1× pH 7.4 that is saturated with an n-octanol solution that comprises the organic phase.
Stock solutions at 1.0 mg/mL of each quinoline being studied were prepared in PBS buffer 0.1× pH 7.4 saturated in octanol. […] Starting from these solutions, dilutions were made for a range concentration of between 1.0 mg/mL and 100 μg/mL to establish their maximum absorbance in the UV-visible region.
Then the tested quinolines were dissolved in PBS 0.1× pH 7.4 saturated in n-octanol and agitated for 30 min. at room temperature. Subsequently, this emulsion was left to settle for 48 h and a centrifugation at 3,000 rpm for 10 minutes was carried out to separate the phases. Both the octanol/water partition coefficient and Log P were established using the difference in the absorbance in the UV-visible region for each compound using equation 1:
[THQ in octanol]=[THQ start]−[THQ buffer] Éq. 1:
The concentrations for THQ start are established using equation 2: […]
Subsequently, the P quotient in established between both phases as described by equation 3: […]
Finally the partition coefficient is established by Log P.
For this test 2 controls were used: clidinium bromide that is a quaternary amine that is not liposoluble, and sodium thiopental, which is a very liposoluble barbituric anaesthetic. Each part of the test was done in triplicate.

In data set [4] the test system is tau protein from bovine brain. Particulars: 7 days 37° C.; for Tau polymer concentration: tau 2.0 mg/mL, heparin 200 μg/mL, +control 3.00, −control 1.38. As to the method:
(§3) Effect of the quinolines in the tau aggregation. Turbidimetric studies. Tau aggregation was monitored by means of its absorbance at λ 340 nm using UV spectrophotometry. Purified and highly concentrated tau protein from bovine brain (2.0 mg/mL) was re-suspended in MES 0.1 M pH 7.2 buffer and induced to polymerize in the form of PHFs in the presence of polyanions (heparin at a concentration of 200 μg/mL) at a final volume of 1.0 mL. This mixture was incubated at 37° C. and maintained under gentle agitation for 7 days. At the same time, another sample containing the tau protein, heparin (200 μg/mL) and the selected quinoline at different concentrations from 1.0 to 50 μM and a final volume of 1.0 mL was incubated in the same way, thus verifying the effect that quinolines have over tau aggregation. […] As an additional control the tau protein was replaced with water in order to measure the absorbance of these quinolines. Each sample was carried out in triplicate.
Effect of quinolines in tau aggregation. Sedimentation studies. After 7 days of incubation at 37° C. under gentle agitation, the sedimentation of the tau aggregates was conducted in the presence and in absence of quinolines. To this purpose, 400 μl were taken of each one of the samples prepared for the turbidimetric analysis and they were centrifuged at 42,000 g (18.000 rpm using the AH-650 rotor) at 37° C. for 25 min. The pellet obtained from each sample of this centrifugation was re-suspended in 50 μL of MES 0,1 M slightly alkaline (pH 7.2) buffer and the concentration of protein was established for each one of them. In this procedure, and because the sample volume is very small, a nanophotometer was used, measuring the concentration of the sedimented and re-suspended protein at λ 280 nm.

In data set [5] the test system is tau protein from bovine brain. The settings on record: THQ 55 1.0 to 50 μM, FIG. 11. As to the method:
as §3

Data set [6] deals with T1, hTau protein (Homo sapiens, UniProt P10636). The settings on record: hTau 230 nM, ^3H-AST 52 nM, cold ligand 10 nM to 10 μM.
T1 sequence (P10636 with tags, fused parts or gaps): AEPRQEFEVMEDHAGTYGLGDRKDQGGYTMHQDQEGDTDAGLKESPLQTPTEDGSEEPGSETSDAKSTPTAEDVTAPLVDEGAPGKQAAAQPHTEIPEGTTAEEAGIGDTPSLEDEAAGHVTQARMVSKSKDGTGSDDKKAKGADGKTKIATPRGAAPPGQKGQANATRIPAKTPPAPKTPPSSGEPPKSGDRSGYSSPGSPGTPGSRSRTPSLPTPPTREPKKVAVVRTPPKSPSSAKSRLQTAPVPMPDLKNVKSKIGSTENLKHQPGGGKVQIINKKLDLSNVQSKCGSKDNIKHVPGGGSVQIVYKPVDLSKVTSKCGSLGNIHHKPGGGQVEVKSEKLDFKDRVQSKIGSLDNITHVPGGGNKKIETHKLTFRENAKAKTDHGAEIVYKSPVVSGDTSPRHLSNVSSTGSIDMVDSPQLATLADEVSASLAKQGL
Protocol: (§4) Subsequently, the tau protein, ^3H-AST and the quinolines are incubated for 4 hours at 25° C. under gentle agitation and the procedure depicted in FIG. 3 is followed.
For data set [7], the target named is T1, hTau protein. Kind of data set: biochemical.
Protocol: as §4
The target in data set [8] is mGluR 5 (Homo sapiens, UniProt P41594). Particulars: Yanamala et al. 2008; cited from earlier work.
Chain of mGluR 5 (P41594 21-1212): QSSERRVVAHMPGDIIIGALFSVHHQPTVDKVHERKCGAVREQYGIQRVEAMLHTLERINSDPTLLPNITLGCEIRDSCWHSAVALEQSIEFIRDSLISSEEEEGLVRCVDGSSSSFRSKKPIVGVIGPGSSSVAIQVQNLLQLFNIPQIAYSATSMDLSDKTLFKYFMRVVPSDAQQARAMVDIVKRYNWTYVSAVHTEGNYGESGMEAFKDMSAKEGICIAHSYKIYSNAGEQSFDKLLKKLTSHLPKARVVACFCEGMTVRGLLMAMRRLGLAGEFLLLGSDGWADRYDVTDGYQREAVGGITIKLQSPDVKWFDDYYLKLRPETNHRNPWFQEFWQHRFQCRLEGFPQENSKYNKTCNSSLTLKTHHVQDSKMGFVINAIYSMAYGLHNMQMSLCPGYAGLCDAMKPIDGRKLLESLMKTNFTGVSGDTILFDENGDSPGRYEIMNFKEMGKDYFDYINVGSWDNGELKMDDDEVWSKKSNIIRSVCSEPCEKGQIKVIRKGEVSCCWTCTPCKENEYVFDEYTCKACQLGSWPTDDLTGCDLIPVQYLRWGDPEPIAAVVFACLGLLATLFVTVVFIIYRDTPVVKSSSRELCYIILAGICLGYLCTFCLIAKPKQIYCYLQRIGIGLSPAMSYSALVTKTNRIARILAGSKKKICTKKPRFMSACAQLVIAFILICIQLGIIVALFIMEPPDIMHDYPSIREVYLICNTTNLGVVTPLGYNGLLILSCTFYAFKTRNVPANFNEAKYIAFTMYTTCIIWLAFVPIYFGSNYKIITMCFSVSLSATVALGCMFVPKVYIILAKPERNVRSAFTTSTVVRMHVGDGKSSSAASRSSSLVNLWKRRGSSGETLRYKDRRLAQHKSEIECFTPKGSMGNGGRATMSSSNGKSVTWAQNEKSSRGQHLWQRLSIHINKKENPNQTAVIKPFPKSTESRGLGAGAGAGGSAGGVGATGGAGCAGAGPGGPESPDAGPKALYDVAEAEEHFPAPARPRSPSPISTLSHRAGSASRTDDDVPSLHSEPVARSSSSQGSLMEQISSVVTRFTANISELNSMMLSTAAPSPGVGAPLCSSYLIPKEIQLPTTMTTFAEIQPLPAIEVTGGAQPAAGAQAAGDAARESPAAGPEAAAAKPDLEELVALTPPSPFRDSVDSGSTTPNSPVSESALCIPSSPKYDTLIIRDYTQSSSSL
Data set [9] has as its target mGluR I (Homo sapiens, UniProt Q13255). Particulars: Yanamala et al. 2008; cited from earlier work.
[10] abbreviates: tau filaments induced with heparin.
Where [11] appears, read: partition coefficient octanol/PBS buffer 0.1× pH 7.4, triplicate.

Read-outs that look alike come from different tables or passages of the source.

Chain of Human Tau (441a.a.) (P10636 1-441 isoform P10636-8): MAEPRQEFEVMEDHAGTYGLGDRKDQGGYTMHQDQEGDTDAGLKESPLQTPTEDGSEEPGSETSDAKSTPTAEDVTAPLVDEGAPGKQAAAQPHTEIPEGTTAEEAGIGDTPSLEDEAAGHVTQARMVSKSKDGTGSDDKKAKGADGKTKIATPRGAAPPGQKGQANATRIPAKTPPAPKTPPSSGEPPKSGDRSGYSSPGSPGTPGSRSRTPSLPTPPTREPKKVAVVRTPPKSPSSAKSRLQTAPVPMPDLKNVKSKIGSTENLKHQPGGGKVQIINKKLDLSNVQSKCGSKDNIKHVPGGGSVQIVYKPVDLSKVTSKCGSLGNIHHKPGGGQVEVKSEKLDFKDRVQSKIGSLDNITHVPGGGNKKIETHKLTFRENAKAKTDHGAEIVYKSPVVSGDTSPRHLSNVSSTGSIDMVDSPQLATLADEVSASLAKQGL
Chain of mGluR I (Q13255 19-1194): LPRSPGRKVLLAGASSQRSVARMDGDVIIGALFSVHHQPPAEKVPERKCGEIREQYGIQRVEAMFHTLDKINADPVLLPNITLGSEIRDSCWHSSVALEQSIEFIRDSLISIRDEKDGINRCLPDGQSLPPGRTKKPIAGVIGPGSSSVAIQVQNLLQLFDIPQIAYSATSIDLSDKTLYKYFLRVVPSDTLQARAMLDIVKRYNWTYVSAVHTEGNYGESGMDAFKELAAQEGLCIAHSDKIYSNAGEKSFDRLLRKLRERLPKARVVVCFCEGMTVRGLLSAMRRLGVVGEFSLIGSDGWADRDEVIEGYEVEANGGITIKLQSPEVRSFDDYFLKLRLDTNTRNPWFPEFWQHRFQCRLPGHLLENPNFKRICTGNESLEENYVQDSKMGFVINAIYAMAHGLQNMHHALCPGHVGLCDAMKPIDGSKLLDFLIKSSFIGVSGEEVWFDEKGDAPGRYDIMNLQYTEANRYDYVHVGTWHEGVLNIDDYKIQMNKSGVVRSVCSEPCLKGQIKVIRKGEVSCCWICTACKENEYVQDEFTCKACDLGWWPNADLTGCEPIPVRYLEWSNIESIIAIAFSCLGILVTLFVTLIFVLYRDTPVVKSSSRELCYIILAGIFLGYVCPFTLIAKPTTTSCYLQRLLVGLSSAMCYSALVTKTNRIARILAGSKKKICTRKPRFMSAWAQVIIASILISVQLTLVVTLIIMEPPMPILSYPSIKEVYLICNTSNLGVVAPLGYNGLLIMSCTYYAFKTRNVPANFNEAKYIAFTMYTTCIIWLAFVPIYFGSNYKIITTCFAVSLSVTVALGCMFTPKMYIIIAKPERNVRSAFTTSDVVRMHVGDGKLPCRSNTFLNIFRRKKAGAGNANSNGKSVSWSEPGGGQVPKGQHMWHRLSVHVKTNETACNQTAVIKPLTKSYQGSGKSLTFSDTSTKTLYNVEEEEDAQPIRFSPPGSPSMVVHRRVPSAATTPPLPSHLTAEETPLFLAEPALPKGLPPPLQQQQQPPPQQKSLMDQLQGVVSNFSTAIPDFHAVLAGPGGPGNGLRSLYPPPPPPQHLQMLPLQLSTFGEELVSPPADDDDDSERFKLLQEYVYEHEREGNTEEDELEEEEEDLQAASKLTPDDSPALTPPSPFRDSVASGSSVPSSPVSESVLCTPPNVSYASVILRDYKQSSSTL

In data set [1], `[3H]COc1ccc(CCN2CCC(Nc3nc4ccccc4n3Cc3ccc(F)cc3)CC2)cc1` [^3H-AST, [O-methyl-3H]-astemizol] yielded a Bmax of 13.07 nM and a Bmax/Kd index of 3.316. In addition, in data set [2], the Bmax/Kd index was 3.00 and the “Affinity to tau filaments (in words)” value is reported as “high affinity”. The compound further had a Bmax in data set [2] (setting [10]) of 5.7 pmol/nmol tau.
For the compound `Cc1ccc(-c2ccc3cccc(Br)c3n2)cc1` [THQ 9S, 2-(4-methylphenyl), 8-(bromo)quinoline], in data set [3] (setting [11]), the logP was -0.214.
As for `COc1ccc(CCN2CCC(Nc3nc4ccccc4n3Cc3ccc(F)cc3)CC2)cc1` [^3H-AST, [O-methyl-3H]-astemizol], the values for the Kd in [1] and in data set [2] (setting [10]) were 3.94 nM and 1.86 nM, respectively.
Turning to `COc1ccc2nc(-c3ccc(C)cc3)ccc2c1` [THQ 3S, 2-(4-methylphenyl), 6-(O-methyl)quinoline], the “Log P (experimental)” value in [3] (setting [11]) is 0.434 + 0.005.
`Cc1cccc(-c2ccc3cc(C)ccc3n2)c1` [THQ 12S, 2-(5-methylphenyl), 6-(methyl)quinoline]: in [3], the “Liposolubility expressed as Log P (in words)” value is recorded as “optimal”. Besides, the logP in data set [3] (setting [11]) is 2.58.
As for `Cc1ccc2nc(-c3ccc(N)cc3)ccc2c1` [THQ 55, 2-(4-aminophenyl), 6-(methyl)quinoline], the “Effect over the auto-aggregation of tau protein (sedimented protein at λ 280 nm)” value in [4] is given as “pronounced inhibitory effect”. Also, the Tau polymer concentration was 2.72 + 0.002 mg/mL in data set [4] (compound 1.0 μM), 2.43 + 0.003 mg/mL in data set [4] (compound 10 μM) and 0.79 + 0.004 mg/mL in data set [4] (compound 50.0 μM). Besides, the “Inhibition of tau aggregation (absorbance at λ 340)” value in [5] is recorded as “high capacity to inhibit tau aggregation”. The “Liposolubility expressed as Log P (in words)” value in data set [3] is reported as “optimal”. In addition, the logP in [3] (setting [11]) worked out at 1.97. Further, the “Displacement of the radioligand” value in data set [6] is “do not displace the radioligand”. In addition, the Ki in data set [7] is above 10000 nM.
In the case of `Cc1cccc(C#Cc2ccccc2)n1` [MPEP], the “Docking Energies” value in [8] was -7.77 kcal/mol.
On to `Cc1ccc(-c2ccc3cc(C)ccc3n2)cc1` [THQ 4S, 2-(4methylphenyl), 6-(methyl)quinoline], for which, in data set [3], the “Liposolubility expressed as Log P (in words)” value is given as “optimal”. Also, in data set [3] (setting [11]), the logP worked out at 2.66. The “Displacement of the radioligand” value in data set [6] was “do not displace the radioligand”. Further, the Ki in data set [7] was above 10000 nM.
On to `COc1ccc(CCN2CCC(Nc3nc4ccccc4n3Cc3ccc(F)cc3)CC2)cc1` [Ast, Astemizol, reference compound], for which the Tau polymer concentration in data set [4] (compound 10 μM) was 2.84 + 0.002 mg/mL. For the same compound, the “Affinity to tau filaments (in words)” value in data set [2] is recorded as “high affinity”.
As for `O=C(Cc1ccccc1)c1ccc2nc3c(cc2c1)CCCO3` [R214127], in [9], the “Docking Energies” value was -7.34 kcal/mol.

For orientation: Kd means the concentration at which binding is half-saturated. Read a high Kd as lower affinity. One may read the Ki as a measure of affinity in units of concentration, obtained from inhibition or displacement. A high value points to a looser hold on the target.

These data come from patent publication US20110269793A1, “METHOD FOR PREVENTING TAU PROTEIN AGGREGATION AND TREATING ALZHEIMER'S DISEASE WITH A QUINOLINE DERIVATIVE COMPOUND” (priority 2010, published 2011).
